Data published in patent US5618726A, “Biodegradable azo dyes” (priority 1994, dated 1997).

What was measured:
[1] = test system: P. chrysosporium; test: Mineralization of 14C-labeled dyes by shaken cultures; type: cell-based, Phanerochaete chrysosporium; settings: 21 days' growth, 200 mg/liter
Description: (§1) Agitated cultures containing 100,000 to 150,000 dpm of azo dye at a concentration of 200 mg/liter for P. chrysosporium and 50 mg/liter for S. chromofuscus were incubated at 37° C. for 20 days with shaking at 200 rpm. For each mineralization experiment six replicates-per-culture were run for P. chrysosporium and three replicates-per-culture for S. chromofuscus. Each culture flask contained a CO2 trap consisting of a small glass cup connected to the bottom of the rubber stopper. The cup contained 1 ml of 1N NaOH. Samples were taken every 2 days, and after each sampling cultures were flushed with 100% oxygen for 30 s. At the sampling time, the stopper was removed and the NaOH containing trapped CO2 was transferred to a 20-ml scintillation vial, and the cup was then rinsed twice with 1 ml of water. Two ml of rinse water were also transferred to the vial. Finally, 10 ml of Ecolite scintillation cocktail (ICN Biochemicals Inc., Irvine, Calif.) were added to each vial. Vials, after mixing, were stored in the dark for 24 h. The cpm of trapped radioactivity was then determined in a Packard Tri-Carb liquid scintillation analyzer, Model 1500, using the ^14 C quench standards and SIS numbers.
Either a charcoal-containing polyurethane sponge (Bio-Rad Laboratories, Richmond, Calif.) or 2-methoxyethanol was used to trap volatile organic compounds released during mineralization experiments. The sponge (1 cm^3) replaced the 1N NaOH solution in the small glass cap attached to the rubber stopper; other conditions were as before for the ^14 CO2 experiments. For scintillation counting, the charcoal sponges were dissolved in 1 ml of hyamine hydroxide contained in scintillation vials (1M solution in methanol; NEN Research Products, Boston, Mass.) held at 55° C. for 2 h. Ten ml of Ecolite scintillation cocktail were then added and the cpm was measured.
In the second procedure, cultures with CO2 traps were flushed with oxygen for 10 min, and the organic volatiles present were trapped in 10 ml of 2-methoxyethanol mixed with 10 ml Ecolite.
(§2) The removal of radioactivity from the media was determined by measuring the amount of ^14 C label in 0.1 ml of the medium at time 0 and 21 days for each culture. Uninoculated cultures were used as evaporation controls. […] At the end of each mineralization experiment, culture broths were acidified with 5 ml of 1M H3 PO4, fresh 1N NaOH was added to the trap, and the cultures were shaken overnight. No additional releases of ^14 CO2 were observed. The radioactivity assimilated by the cells was measured by solubilizing biomass harvested from each 21-day-old culture in an equal volume of hyamine hydroxide solution. Before solubilization, cells were washed three times with 50 ml of distilled water to remove adsorbed dyes. Ecolite 10 ml was added to the mixture, which was vortexed vigorously. To increase counting efficiency, the solution of biomass-hyamine-scintillation cocktail was further diluted 10 to 20 times with fresh Ecolite before counting.

[2] = test system: Streptomyces chromofuscus; test: as above; type: cell-based
Description: as §1, §2

[3] = target: T1, horseradish peroxidase type II (Armoracia rusticana, UniProt P00433); test: Oxidation of azo dyes by horseradish peroxidase preparation; type: biochemical; settings: pH 8, 37° C., H2O2
T1 sequence (P00433 31-338): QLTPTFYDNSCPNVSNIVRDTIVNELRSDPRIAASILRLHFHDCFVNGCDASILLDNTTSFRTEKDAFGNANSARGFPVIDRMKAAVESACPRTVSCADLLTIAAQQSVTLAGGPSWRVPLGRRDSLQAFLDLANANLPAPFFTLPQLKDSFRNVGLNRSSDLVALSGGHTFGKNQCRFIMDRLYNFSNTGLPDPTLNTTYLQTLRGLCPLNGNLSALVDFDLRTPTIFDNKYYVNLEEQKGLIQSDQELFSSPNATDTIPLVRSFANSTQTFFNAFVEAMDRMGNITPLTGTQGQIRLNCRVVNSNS
Description: The reaction was started with the addition of 100 μl of 50 mM H2 O2 and was followed for 1 min at 37° C. Controls were run with no addition of H2 O2 or with the addition of the hemeperoxidase inhibitor KCN (final concentration 25 μM).

[4] = test system: S. chromofuscus A11 extracellular peroxidase; test: Oxidation of azo dyes by S. chromofuscus A11 crude enzyme preparation; type: biochemical, Streptomyces chromofuscus A11; settings: pH 8, 37° C., H2O2
Description: Environ. Microbiol., 1988, 54:3057-3063. […] Microbiol. Biotechnol., 34:661-667. Incubation took place at 37° C. with shaking at 250 rpm. The culture supernatant was collected after 48 h incubation, and vacuum-filtered through Whatman no. 1 filter paper. The filtrate was concentrated approximately 40- to 50-fold by ultrafiltration through an Amicon ultrafiltration stirred cell (series no. 8000, Amicon Corp.) with a disc PM-10 filter (diameter, 76 mm). Protein in the concentrated filtrate was then precipitated from solution with 80% ammonium sulfate. The precipitate was collected by centrifugation (15 min, 10,000 rpm). The pellet was resuspended in 10 ml of 20 mM HEPES buffer (pH 8) and dialyzed overnight against the same buffer at 4° C. These preparations were then stored in 1-ml aliquots at -20° C. until used. Before using, the preparation was filtered through a NAP-25 Sephadex G-25 disposable column (Pharmacia) in order to separate a yellowish protein fraction from a pink low-molecular-weight fraction. The yellowish fraction was used as the source of enzyme. […] The reaction was started with the addition of 100 μl of 50 mM H2 O2 and was followed for 1 min at 37° C. Controls were run with no addition of H2 O2 or with the addition of the hemeperoxidase inhibitor KCN (final concentration 25 μM).

[5] = test system: Mn(II)-peroxidase; test: Oxidation of dyes by P. chrysosporium Mn(II)-peroxidase; type: biochemical, Phanerochaete chrysosporium; settings: crude enzyme, conditions specific for Mn(II)-peroxidase
Description: (§3) The peroxidase assay was carried out using a composition having a final volume of 1.0 ml. The reaction mixture contained 250 μl of 100 mM HEPES buffer (pH 8), 500 μl of 10 mM 2,4-dichlorophenol, 100 μl of 1 mM aminoantipyrine, 50 μl enzyme preparation and 100 μl 50 mM H2 O2. The reaction was initiated by the addition of hydrogen peroxide at 37° C. One unit of peroxidase activity was expressed as the amount of enzyme required for an increase of one absorbance-unit-per-minute at 510 nm. Assays of manganese peroxidase and of ligninase from P. chrysosporium were carried out as previously described by Paszczynski et al in "Manganese peroxidase of Phanerochaete chrysosporium: Purification," Methods Enzymol. 161:264-270, incorporated herein by reference. […] Biophys., 1986, 44:750-765. Preparation and assay of ligninase and manganese peroxidase from these P. chrysosporium cultures were carried out as previously reported by Paszczynski, et al., Methods Enzymol., 1988, 161:264-270. […] Purification," Methods Enzymol. 161:264-270. […] Cycle time was 10 seconds, with the last measure after three minutes of incubation.

[6] = test system: ligninase; test: Oxidation of dyes by P. chrysosporium ligninase (crude preparation); type: biochemical, Phanerochaete chrysosporium; settings: crude enzyme, conditions specific for ligninase
Description: as §3, with “30 seconds” for “10 seconds,”, “15 minutes. […] The reaction conditions were the same as for acid yellow 9. No decolorization” for “three minutes”, “the synthesized dyes by ligninase was detected.” for “incubation.”

[7] = test system: S. diastaticus A12; type: cell-based; settings: streptomyces diastaticus a12 culture, 336 h
Source text: (§4) Microbiol., 1984, 130:2905-2913.
(§5) Replicate sterile controls also were run in each experiment.

[8] = test system: S. diastaticus A13; type: cell-based; settings: streptomyces diastaticus a13 culture, 336 h
Source text: as §4, §5

[9] = test system: S. rochei A10; type: cell-based; settings: streptomyces rochei a10 culture, 336 h
Source text: as §4, §5

[10] = test system: S. chromofuscus A11; settings: for Decolorization of growth medium by S. chromofuscus A11: both 50 and 100 ppm; for Degradation (%) after Streptomyces cultivation, strain A11: streptomyces chromofuscus a11 culture, 336 h
Description: as §4, §5
The Streptomyces were grown on the same media and under the same conditions as previously described. […] Thus, the spectrophotometric assays for substrates 1-12 were carried out at their specific isobastic points. Degradation was calculated as percent of substrates removed from culture broth, considering the evaporation factor (around 10%).

[11] = test system: Phanerochaete chrysosporium; test: Substrate removal / decolorization by P. chrysosporium culture; type: cell-based; settings: for % Decolorization, P. chrysosporium: 14 days
Description: Environ. Microbiol., 1981, 42:290-296), with the addition of 75 mg adenine (6-aminopurine) and 27 mg L-phenylalanine-per-liter. This addition accelerated the growth of the fungus without inhibiting ligninase activity. […] […] Cultures were incubated at 37° C. for 7 to 15 days with shaking (250 rpm). Solid agar media were also employed.

[12] = beginning concentration 100 ppm
[13] = beginning concentration 150 ppm
[14] = beginning concentration 200 ppm
[15] = beginning concentration 300 ppm

Compound	Oxidation rate of azo dyes, Horseradish peroxidase [3] [μmoles per minute per ml]	Oxidation rate of azo dyes, S. chromofuscus peroxidase [4] [μmoles per minute per ml]	Oxidation rate of azo dyes, P. chrysosporium Mn-peroxidase [5] [μmoles per minute per ml]	Oxidation rate of azo dyes, P. chrysosporium Ligninase [6] [μmoles per minute per ml]	Degradation (%) after Streptomyces cultivation, strain A12 [7] [%]	Degradation (%) after Streptomyces cultivation, strain A13 [8] [%]	Degradation (%) after Streptomyces cultivation, strain A10 [9] [%]	Degradation (%) after Streptomyces cultivation, strain A11 [10] [%]	% Decolorization, P. chrysosporium ([11]; initial concn 150 ppm) [%]	% Decolorization, P. chrysosporium ([11]; initial concn 300 ppm) [%]	Decolorization of growth medium by S. chromofuscus A11 [10]	Concentration of substrate after ten days cultivation with P. chrysosporium [11, 12] [ppm]	Concentration of substrate after ten days cultivation with P. chrysosporium [11, 13] [ppm]	Concentration of substrate after ten days cultivation with P. chrysosporium [11, 14] [ppm]	Concentration of substrate after ten days cultivation with P. chrysosporium [11, 15] [ppm]	further results
O=S(=O)(O)c1ccc(N=Nc2ccc(O)c3ccccc23)cc1 [Azo dye 32, 4-(4-hydroxy-naphthylazo)-benzenesulfonic acid]																Percentage of radioactivity recovered in CO2, P. chrysosporium [1]: 19.7%; Percentage of radioactivity recovered in biomass (cells), P. chrysosporium [1]: 4.0%; Percentage of radioactivity removed from the medium, P. chrysosporium [1]: 29.6%; Percentage of radioactivity recovered in CO2, Streptomyces chromofuscus ([2]; 21 days' growth, 50 mg/liter): 1.1%; Percentage of radioactivity recovered in biomass (cells), Streptomyces chromofuscus ([2]; 21 days' growth, 50 mg/liter): 7.0%; Percentage of radioactivity removed from the medium, Streptomyces chromofuscus ([2]; 21 days' growth, 50 mg/liter): 22.0%
CCC(C)c1cc(N=Nc2ccc(S(=O)(=O)O)cc2)ccc1O (centres unmarked) [compound 10]	0.35	0.78	2.86	0.51	7	6	11	16	90	92	significantly decolorized	8.135	15.279	46.588	42.897	
COc1cc(N=Nc2ccc(N=N[14c]3[14cH][14cH][14c](S(=O)(=O)O)[14cH][14cH]3)cc2S(=O)(=O)O)ccc1O [compound 35]																Mineralization by the streptomycetes ([2]; 21-day incubation): mineralized

More lines, main results first:

Oxidation rate of azo dyes, Horseradish peroxidase [3] [μmoles per minute per ml]	Oxidation rate of azo dyes, S. chromofuscus peroxidase [4] [μmoles per minute per ml]	Oxidation rate of azo dyes, P. chrysosporium Mn-peroxidase [5] [μmoles per minute per ml]	Oxidation rate of azo dyes, P. chrysosporium Ligninase [6] [μmoles per minute per ml]	Degradation (%) after Streptomyces cultivation, strain A12 [7] [%]	Degradation (%) after Streptomyces cultivation, strain A13 [8] [%]	Degradation (%) after Streptomyces cultivation, strain A10 [9] [%]	Degradation (%) after Streptomyces cultivation, strain A11 [10] [%]	% Decolorization, P. chrysosporium ([11]; initial concn 150 ppm) [%]	% Decolorization, P. chrysosporium ([11]; initial concn 300 ppm) [%]	Compound	Decolorization of growth medium by S. chromofuscus A11 [10]	Concentration of substrate after ten days cultivation with P. chrysosporium [11, 12] [ppm]	Concentration of substrate after ten days cultivation with P. chrysosporium [11, 13] [ppm]	Concentration of substrate after ten days cultivation with P. chrysosporium [11, 14] [ppm]	Concentration of substrate after ten days cultivation with P. chrysosporium [11, 15] [ppm]	further results
0.12	0.17	0.23	0.75	1	1	2	3	38	27	CCN(CC)c1ccc(N=Nc2ccc(S(=O)(=O)O)cc2)cc1 [compound 15]		1.901	10.589	17.931	17.791	
0.15	0.33	1.06	1.28			4	9	70	34	COc1cc(C)cc(N=Nc2ccc(S(=O)(=O)O)cc2)c1O [compound 11]		6.795	14.416	30.075	21.765	
3.91	2.62	4.62	0.23							O=S(=O)(O)c1ccc(N=Nc2ccc(O)c3ccccc23)cc1 [compound 32]	significantly decolorized					
